Test results from publication PMC7582737, “Melanocortin Receptor 4 (MC4R) Signaling System in Nile Tilapia” (International Journal of Molecular Sciences, 2020).

B1: tilapia ACTH(1-40) (derived from the POMCa1 precursor) (peptide)
peptide: SYSMEHFRWGKPVGRKRRPVKVYTSNGVAEESAEVFPEEM
B2: tilapia α-MSH (acetyl-α-MSH with an amidated C-terminus; derived from the POMCa1 precursor) (peptide)
peptide: Ac-SYSMEHFRWGKPV-NH2
B3: tilapia β-MSH (derived from the POMCa1 precursor) (peptide)
peptide: DGSYKMKHFRWSGPPAS

Legend:
MC4R = tested on: MC4R; parameters: method as in PMID 24085819, PMID 31398355, PMID 31299224, PMID 32922362; settings: mammalian peptides; cited from earlier work
tilapia MC4R + MRAP2b = settings: HEK293 cells; cited from earlier work
Excerpt: The presence of all MC4R signaling components in tilapia led us to further examine their interaction in vitro. […] Our finding partly agrees with recent findings in spotted gar, tilapia, topmouth culter, and zebrafish, showing that MC4R could be activated by mam ...

goldfish = settings: cited from earlier work
Excerpt: In the brain, all genes were detected to be highly or moderately expressed. This finding is consistent with previous reports in teleosts, such as zebrafish and medaka, in which all the genes are expressed in the brain as detected by qRT-PCR assays.

rainbow trout = settings: cited from earlier work
zebrafish = settings: ip/icv injection of MC4R agonist; cited from earlier work
[1] = target: tilapia melanocortin receptor 4 (MC4R), N-terminally 3xFlag-tagged (Nile tilapia (Oreochromis niloticus))
[2] = target: tilapia melanocortin receptor 4 (MC4R), N-terminally 3xFlag-tagged (Nile tilapia (Oreochromis niloticus)); remark: listed apart in the source
[3] = ip/icv injection of MC4R agonist

Molecule	activation of MC4R, relative potency (in words) (MC4R)	EC50 of activating the cAMP/PKA signaling pathway (pGL3-CRE-luciferase reporter) in CHO cells expressing tilapia MC4R in the presence of MRAP2b [2]	EC50 of activating the cAMP/PKA signaling pathway (pGL3-CRE-luciferase reporter) in CHO cells expressing tilapia MC4R, without MRAP2b [2] [nM]	other results
ACTH1-24: mammalian ACTH1-24 (cited)	with similar potencies	–	–	–
ACTH1-39	with similar potencies	–	–	effect of MRAP2b on EC50 value in activating tilapia MC4R (tilapia MC4R + MRAP2b): cannot significantly alter the EC50 value
HS024	–	–	–	effect on food intake, goldfish (goldfish; injection of MC4R antagonist): stimulate food intake; effect on food intake, rainbow trout (rainbow trout; injection of MC4R antagonist): stimulate food intake
MTII	–	–	–	effect on feeding, zebrafish (zebrafish): reduce the feeding; effect on feeding, goldfish (goldfish; [3]): reduce the feeding; effect on feeding, rainbow trouts (rainbow trout; [3]): reduce the feeding
NDP-α-MSH	with similar potencies	–	–	–
tilapia melanocortin-2 receptor accessory protein 2b (MRAP2b), N-terminally Myc-tagged (natural protein)	–	–	–	sensitivity and selectivity of MC4R for ACTH(1-40) with MRAP2b co-expressed, against MC4R alone (EC50 0.246 nM vs. 0.032 nM; pGL3-CRE-luciferase reporter, CHO cells) [1]: 8 fold
B1	–	32 pM	0.246	–
B2	–	0.786 nM	0.955	–
B3	–	0.572 nM	0.421	–
